# ChEMBL document CHEMBL3397033, “Bioactive benzofuran derivatives: moracins A-Z in medicinal chemistry” (Eur J Med Chem, 2015)
# pIC50: −log10 of the molar value.
# How the values were obtained:
# Escherichia coli [1] = experiment: Antimicrobial activity against Escherichia coli; format: functional
# Klebsiella pneumoniae [2] = experiment: Antimicrobial activity against Klebsiella pneumoniae; format: functional
# Pseudomonas aeruginosa [3] = experiment: Antimicrobial activity against Pseudomonas aeruginosa; format: functional
# Citrobacter freundii [4] = experiment: Antimicrobial activity against Citrobacter freundii by liquid microdilution assay; format: functional
# Escherichia coli [5] = experiment: Antimicrobial activity against Escherichia coli by liquid microdilution assay; format: functional
# Shigella dysenteriae [6] = experiment: Antimicrobial activity against Shigella dysenteriae by liquid microdilution assay; format: functional
# Pseudomonas aeruginosa [7] = experiment: Antimicrobial activity against Pseudomonas aeruginosa by liquid microdilution assay; format: functional
# Klebsiella pneumoniae [8] = experiment: Antimicrobial activity against Klebsiella pneumoniae by liquid microdilution assay; format: functional
# Salmonella typhi [9] = experiment: Antimicrobial activity against Salmonella typhi by liquid microdilution assay; format: functional, Salmonella enterica subsp. enterica serovar Typhi; details: Salmonella enterica
# Bacillus cereus [10] = experiment: Antimicrobial activity against Bacillus cereus by liquid microdilution assay; format: functional
# Staphylococcus aureus [11] = experiment: Antimicrobial activity against Staphylococcus aureus by liquid microdilution assay; format: functional
# Enterococcus faecalis [12] = experiment: Antimicrobial activity against Streptococcus faecalis by liquid microdilution assay; format: functional
# Candida albicans [13] = experiment: Antimicrobial activity against Candida albicans by liquid microdilution assay; format: functional
# Microsporum audouinii [14] = experiment: Antimicrobial activity against Microsporum audouinii by liquid microdilution assay; format: functional
# Citrobacter freundii [15] = experiment: Microbicidal activity against Citrobacter freundii by liquid microdilution assay; format: functional
# Escherichia coli [16] = experiment: Microbicidal activity against Escherichia coli by liquid microdilution assay; format: functional
# Shigella dysenteriae [17] = experiment: Microbicidal activity against Shigella dysenteriae by liquid microdilution assay; format: functional
# Pseudomonas aeruginosa [18] = experiment: Microbicidal activity against Pseudomonas aeruginosa by liquid microdilution assay; format: functional
# Klebsiella pneumoniae [19] = experiment: Microbicidal activity against Klebsiella pneumoniae by liquid microdilution assay; format: functional
# Salmonella typhi [20] = experiment: Microbicidal activity against Salmonella typhi by liquid microdilution assay; format: functional, Salmonella enterica subsp. enterica serovar Typhi; details: Salmonella enterica
# Bacillus cereus [21] = experiment: Microbicidal activity against Bacillus cereus by liquid microdilution assay; format: functional
# Staphylococcus aureus [22] = experiment: Microbicidal activity against Staphylococcus aureus by liquid microdilution assay; format: functional
# Enterococcus faecalis [23] = experiment: Microbicidal activity against Streptococcus faecalis by liquid microdilution assay; format: functional
# Candida albicans [24] = experiment: Microbicidal activity against Candida albicans by liquid microdilution assay; format: functional
# Microsporum audouinii [25] = experiment: Microbicidal activity against Microsporum audouinii by liquid microdilution assay; format: functional
# [26] = Antioxidant activity assessed as DPPH radical scavenging activity measured as discoloration at 12.5 ug/ml; format: physicochemical
# [27] = Antioxidant activity assessed as DPPH radical scavenging activity measured as discoloration at 25 ug/ml; format: physicochemical
# [28] = Antioxidant activity assessed as DPPH radical scavenging activity measured as discoloration at 50 ug/ml; format: physicochemical
# [29] = Antioxidant activity assessed as DPPH radical scavenging activity measured as discoloration at 100 ug/ml; format: physicochemical
# [30] = Antioxidant activity assessed as DPPH radical scavenging activity; format: physicochemical
# A549 = experiment: Cytotoxicity against human A549 cells after 96 hrs by MTT assay; format: functional, cell-based; details: A549, 96 h
# [31] = Cytotoxicity against human Bel7402 cells after 96 hrs by MTT assay; format: functional, cell-based; details: Bel-7402, 96 h
# [32] = Cytotoxicity against human BGC823 cells after 96 hrs by MTT assay; format: functional, cell-based; details: BGC-823, 96 h
# [33] = Cytotoxicity against human HCT8 cells after 96 hrs by MTT assay; format: functional, cell-based; details: HCT-8, 96 h
# A2780 = experiment: Cytotoxicity against human A2780 cells after 96 hrs by MTT assay; format: functional, cell-based; details: A2780, 96 h
# Morus alba = experiment: Antioxidant activity in mulberry leaves assessed as UV-stress-induced free radical scavenging activity measured as inhibition of blue formazan at 100 uM; format: functional
# [34] = Inhibition of alpha-glucosidase (unknown origin); parameters: species or system Homo sapiens
# Tyrosinase = Tyrosinase (Agaricus bisporus, UniProt O42713); experiment: Inhibition of mushroom tyrosinase
# [35] = Antifungal activity against Fusarium roseum; format: functional
# [36] = Antifungal activity against Fusarium lateritium f. sp. mori; format: functional
# [37] = Antifungal activity against Fusarium solani f. sp. mori; format: functional
# [38] = Antifungal activity against Diaporthe nomurai; format: functional
# [39] = Antifungal activity against Stigmina mori; format: functional
# Rosellinia necatrix = experiment: Antifungal activity against Rosellinia necatrix; format: functional
# [40] = Antifungal activity against Cochliobolus miyabeanus; format: functional; details: Bipolaris oryzae
# Staphylococcus aureus [41] = experiment: Antimicrobial activity against methicillin-sensitive Staphylococcus aureus; format: functional
# Staphylococcus aureus [42] = experiment: Antimicrobial activity against methicillin-resistant Staphylococcus aureus; format: functional
# Micrococcus luteus = experiment: Antimicrobial activity against Micrococcus luteus; format: functional
# Bacillus subtilis = experiment: Antimicrobial activity against Bacillus subtilis; format: functional
# [43] = Cytotoxicity against human Hep3B cells assessed as cell viability after 24 hrs by MTT assay; format: cell-based, Hep 3B2
# RAW264.7 [44] = experiment: Antiinflammatory activity against mouse RAW264.7 cells assessed as reduction of IFNgamma-induced NO production; format: functional, cell-based
# RAW264.7 [45] = experiment: Antiinflammatory activity against mouse RAW264.7 cells assessed as reduction of LPS-induced NO production; format: functional, cell-based
# Sequence of Tyrosinase (O42713 whole entry): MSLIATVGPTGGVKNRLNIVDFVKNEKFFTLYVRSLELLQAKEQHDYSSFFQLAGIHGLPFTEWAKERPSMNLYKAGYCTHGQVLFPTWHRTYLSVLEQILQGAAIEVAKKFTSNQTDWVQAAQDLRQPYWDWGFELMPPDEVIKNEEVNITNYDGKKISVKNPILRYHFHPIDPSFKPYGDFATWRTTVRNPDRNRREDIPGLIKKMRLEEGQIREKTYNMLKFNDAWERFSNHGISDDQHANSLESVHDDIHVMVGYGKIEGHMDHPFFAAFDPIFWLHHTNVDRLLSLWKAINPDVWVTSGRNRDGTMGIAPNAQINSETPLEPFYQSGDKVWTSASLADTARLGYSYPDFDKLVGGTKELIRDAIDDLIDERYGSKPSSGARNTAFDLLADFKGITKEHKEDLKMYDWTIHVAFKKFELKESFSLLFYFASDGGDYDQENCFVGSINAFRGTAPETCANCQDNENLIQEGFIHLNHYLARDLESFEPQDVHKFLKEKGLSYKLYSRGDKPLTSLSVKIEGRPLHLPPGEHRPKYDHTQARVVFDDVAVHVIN
structure (smiles),measurement,setting,value
COc1cc2oc(-c3cc(O)cc(O)c3)cc2cc1O,MIC,Escherichia coli [1],> 100 µg/mL
same,MIC,Klebsiella pneumoniae [2],> 100 µg/mL
same,MIC,Pseudomonas aeruginosa [3],> 100 µg/mL
COc1cc(O)cc(-c2cc3cc(O)c(OC)cc3o2)c1,MIC,Escherichia coli [1],> 100 µg/mL
same,MIC,Klebsiella pneumoniae [2],> 100 µg/mL
same,MIC,Pseudomonas aeruginosa [3],> 100 µg/mL
COc1cc(O)cc(-c2cc3ccc(O)cc3o2)c1CC=C(C)C [MORACIN I],MIC,Escherichia coli [1],> 100 µg/mL
same,MIC,Klebsiella pneumoniae [2],> 100 µg/mL
same,MIC,Pseudomonas aeruginosa [3],> 100 µg/mL
COc1c(O)cc2oc(-c3cc(O)cc(O)c3)cc2c1CC=C(C)C,MIC,Escherichia coli [1],> 100 µg/mL
same,MIC,Klebsiella pneumoniae [2],> 100 µg/mL
same,MIC,Pseudomonas aeruginosa [3],> 100 µg/mL
same,MIC,Citrobacter freundii [4],156 µg/mL
same,MIC,Escherichia coli [5],5 µg/mL
same,MIC,Shigella dysenteriae [6],5 µg/mL
same,MIC,Pseudomonas aeruginosa [7],5 µg/mL
same,MIC,Klebsiella pneumoniae [8],39 µg/mL
same,MIC,Salmonella typhi [9],5 µg/mL
same,MIC,Bacillus cereus [10],5 µg/mL
same,MIC,Staphylococcus aureus [11],10 µg/mL
same,MIC,Enterococcus faecalis [12],10 µg/mL
same,MIC,Candida albicans [13],10 µg/mL
same,MIC,Microsporum audouinii [14],39 µg/mL
same,MBC,Citrobacter freundii [15],312 µg/mL
same,MBC,Escherichia coli [16],10 µg/mL
same,MBC,Shigella dysenteriae [17],10 µg/mL
same,MBC,Pseudomonas aeruginosa [18],20 µg/mL
same,MBC,Klebsiella pneumoniae [19],78 µg/mL
same,MBC,Salmonella typhi [20],20 µg/mL
same,MBC,Bacillus cereus [21],39 µg/mL
same,MBC,Staphylococcus aureus [22],39 µg/mL
same,MBC,Enterococcus faecalis [23],39 µg/mL
same,MFC,Candida albicans [24],20 µg/mL
same,MFC,Microsporum audouinii [25],78 µg/mL
same,Activity,[26],61.58%
same,Activity,[27],65.63%
same,Activity,[28],71.72%
same,Activity,[29],83.04%
same,EC50,[30],4.12 µg/mL
CC1(C)Oc2cc3oc(-c4cc(O)cc(O)c4)cc3cc2C(O)C1O (stereo unspecified),MIC,Escherichia coli [1],> 100 µg/mL
same,MIC,Klebsiella pneumoniae [2],> 100 µg/mL
same,MIC,Pseudomonas aeruginosa [3],> 100 µg/mL
COc1cc2oc(-c3cc(O)cc(O)c3)cc2cc1CCC(C)(C)O,MIC,Escherichia coli [1],> 100 µg/mL
same,MIC,Klebsiella pneumoniae [2],> 100 µg/mL
same,MIC,Pseudomonas aeruginosa [3],> 100 µg/mL
CC(C)=CCc1cc2cc(-c3cc(O)cc(O)c3)oc2cc1O [MORACIN N],MIC,Escherichia coli [1],> 100 µg/mL
same,MIC,Klebsiella pneumoniae [2],> 100 µg/mL
same,MIC,Pseudomonas aeruginosa [3],> 100 µg/mL
same,IC50,A549,> 10 µg/mL
same,IC50,[31],> 10 µg/mL
same,IC50,[32],> 10 µg/mL
same,IC50,[33],> 10 µg/mL
same,IC50,A2780,> 10 µg/mL
same,inhibition,Morus alba,76%
same,pIC50,[34],5.56
same,pIC50,Tyrosinase,6.03
CC1(O)C=Cc2c(c(O)cc3cc(-c4cc(O)cc(O)c4)oc23)OC1 (stereo unspecified),MIC,Escherichia coli [1],> 100 µg/mL
same,MIC,Klebsiella pneumoniae [2],> 100 µg/mL
same,MIC,Pseudomonas aeruginosa [3],> 100 µg/mL
same,MIC,Citrobacter freundii [4],312 µg/mL
same,MIC,Escherichia coli [5],10 µg/mL
same,MIC,Shigella dysenteriae [6],78 µg/mL
same,MIC,Pseudomonas aeruginosa [7],625 µg/mL
same,MIC,Klebsiella pneumoniae [8],156 µg/mL
same,MIC,Salmonella typhi [9],39 µg/mL
same,MIC,Bacillus cereus [10],10 µg/mL
same,MIC,Staphylococcus aureus [11],156 µg/mL
same,MIC,Enterococcus faecalis [12],20 µg/mL
same,MIC,Candida albicans [13],312 µg/mL
same,MIC,Microsporum audouinii [14],78 µg/mL
same,MBC,Citrobacter freundii [15],625 µg/mL
same,MBC,Escherichia coli [16],39 µg/mL
same,MBC,Shigella dysenteriae [17],156 µg/mL
same,MBC,Klebsiella pneumoniae [19],312 µg/mL
same,MBC,Salmonella typhi [20],78 µg/mL
same,MBC,Bacillus cereus [21],39 µg/mL
same,MBC,Staphylococcus aureus [22],312 µg/mL
same,MBC,Enterococcus faecalis [23],78 µg/mL
same,MFC,Candida albicans [24],625 µg/mL
same,MFC,Microsporum audouinii [25],312 µg/mL
same,Activity,[26],38.5%
same,Activity,[27],42.09%
same,Activity,[28],49.98%
same,Activity,[29],53.6%
same,EC50,[30],6.08 µg/mL
COc1cc2c(c3oc(-c4cc(O)cc(O)c4)cc13)CC=C(C)CO2,MIC,Escherichia coli [1],> 100 µg/mL
same,MIC,Klebsiella pneumoniae [2],> 100 µg/mL
same,MIC,Pseudomonas aeruginosa [3],> 100 µg/mL
same,MIC,[35],15 µg/mL
same,MIC,[36],100 µg/mL
same,MIC,[37],1000 µg/mL
same,MIC,[38],50 µg/mL
same,MIC,[39],50 µg/mL
same,MIC,Rosellinia necatrix,15 µg/mL
same,MIC,[40],50 µg/mL
CC1(C)Oc2cc3oc(-c4cc(O)cc(O)c4)cc3cc2CC1O (stereo not drawn) [(+/-)-MORACIN P],MIC,Staphylococcus aureus [41],50 µg/mL
same,MIC,Staphylococcus aureus [42],100 µg/mL
same,MIC,Micrococcus luteus,100 µg/mL
same,MIC,Bacillus subtilis,100 µg/mL
same,MIC,Escherichia coli [1],> 100 µg/mL
same,MIC,Klebsiella pneumoniae [2],> 100 µg/mL
same,MIC,Pseudomonas aeruginosa [3],> 100 µg/mL
same,pIC50,[43],< 4.52
same,pIC50,Tyrosinase,5.54
same,pIC50,RAW264.7 [44],4.71
same,pIC50,RAW264.7 [45],4.71
COc1cc2cc(-c3cc(O)cc(O)c3)oc2cc1OC,MIC,Escherichia coli [1],> 100 µg/mL
same,MIC,Klebsiella pneumoniae [2],> 100 µg/mL
same,MIC,Pseudomonas aeruginosa [3],> 100 µg/mL
same,MIC,[35],50 µg/mL
same,MIC,[36],200 µg/mL
same,MIC,[37],1000 µg/mL
same,MIC,[38],1000 µg/mL
same,MIC,[39],50 µg/mL
same,MIC,Rosellinia necatrix,50 µg/mL
same,MIC,[40],100 µg/mL
